Test: xn = mol fraction of the nth substance listed
Details: 101.3 kPa, Liquid

CCCCCCCCCC [decane] + CCC(C)O
Details	mass density, 293.15 K [kg/m3]	mass density, 298.15 K [kg/m3]	mass density, 303.15 K [kg/m3]	speed of sound, 293.15 K [m/s]	speed of sound, 298.15 K [m/s]	speed of sound, 303.15 K [m/s]	viscosity, 293.15 K [mPa·s]	viscosity, 298.15 K [mPa·s]	viscosity, 303.15 K [mPa·s]
x2 = 0	729.9	726.1	722.3	1254	1235	1215	0.911	0.845	0.787
x2 = 0.0488	730.9	727.1	723.2	1250	1230	1210	0.9	0.833	0.774
x2 = 0.0992	732.4	728.5	724.6	1246	1226	1207	0.905	0.836	0.776
x2 = 0.2038	736.2	732.2	728.2	1240	1220	1201	0.926	0.854	0.791
x2 = 0.3041	740.4	736.4	732.4	1235	1215	1195	0.956	0.88	0.812
x2 = 0.3972	745	741	736.9	1230	1211	1191	1.008	0.922	0.847
x2 = 0.498	751	746.9	742.8	1227	1207	1187	1.09	0.989	0.901
x2 = 0.5972	758.1	754	749.8	1224	1204	1185	1.222	1.091	0.983
x2 = 0.703	767.5	763.3	759	1223	1203	1184	1.454	1.286	1.142
x2 = 0.8001	777.7	773.5	769.2	1224	1204	1185	1.787	1.548	1.351
x2 = 0.9002	790.5	786.4	782.1	1225	1207	1188	2.389	2.026	1.736
x2 = 0.9497	798.2	794	789.8	1228	1209	1191	2.879	2.418	2.047

CCC(C)O (stereo unspecified) [butan-2-ol] + CCCCCCCC
Details	mass density, 293.15 K [kg/m3]	mass density, 298.15 K [kg/m3]	mass density, 303.15 K [kg/m3]	speed of sound, 293.15 K [m/s]	speed of sound, 298.15 K [m/s]	speed of sound, 303.15 K [m/s]	viscosity, 293.15 K [mPa·s]	viscosity, 298.15 K [mPa·s]	viscosity, 303.15 K [mPa·s]
x1 = 0.0481	704.6	700.5	696.4	1190	1169	1148	0.541	0.508	0.478
x1 = 0.0974	707.2	703.1	698.9	1187	1167	1146	0.554	0.519	0.488
x1 = 0.1984	713.3	709.2	704.9	1184	1163	1143	0.582	0.544	0.511
x1 = 0.289	719.4	715.2	711	1182	1161	1141	0.624	0.579	0.541
x1 = 0.3964	727.7	723.5	719.1	1181	1161	1141	0.697	0.644	0.599
x1 = 0.4923	736.2	731.9	727.5	1183	1162	1142	0.78	0.713	0.645
x1 = 0.5931	746.5	742.1	737.8	1187	1166	1146	0.927	0.84	0.761
x1 = 0.6922	758.1	753.8	749.4	1193	1173	1153	1.162	1.031	0.919
x1 = 0.7987	772.5	768.2	763.9	1202	1182	1163	1.574	1.361	1.191
x1 = 0.8988	788.3	784	779.7	1214	1195	1176	2.267	1.932	1.662
x1 = 0.9495	797.2	793	788.8	1222	1203	1185	2.809	2.353	1.99
x1 = 1	806.8	802.7	798.5	1230	1212	1194	3.623	2.995	2.493
